Measured values as given in patent US4578498A, “Phenylethylene derivatives and their use as drugs” (BASF Aktiengesellschaft, priority 1982, dated 1986).
Where two headings read alike, the source gives them in different places. Blank lines part the entries; values can stand above or below the compound they belong to.

How the values were obtained:
[1] = tested on: tracheal epithelium; assay: Elimination of keratinization in tracheal cultures (antitumor action); format: cell-based, hamster; conditions: Mesocricetus auratus, 240 h
Excerpt: The test model is used to determine the intrinsic property of the novel compounds of increasing the differentiation of epithelial cells. The great significance of this screening method in predicting the potential use of a new retinoid for the prevention of tumors in epithelial tissue is generally recognized. Moreover, it is known that every in vitro test system has disadvantages in respect of the prediction of in vivo activity. Apart from these basic restrictions, tracheal cell cultures are one of the most useful methods of determining the biological activity of novel retinoids.
The ability of the test substances to eliminate keratinization in a defined in vitro system was determined. Tracheae of hamsters at a very early stage of vitamin A deficiency were used for culture. […] Their average weight was from 47 to 52 g. The tracheal epithelium was in general slightly columnar or pavement-like and had only isolated areas of squamous metaplasia. Each trachea was opened along the membrane-like dorsal wall, from the larynx to the carina, and cultured in a serum-free medium (CMRL-1066 supplemented by 1.0 μg/ml of crystalline bovine insulin, 0.1 μg/ml of hydrocortisone hemisuccinate, 2mM of glutamine, 100 units/ml of penicillin and 100 μg/ml of streptomycin). The cultures were aerated with a mixture of 50% of oxygen, 45% of nitrogen and 5% of carbon dioxide, and the culture dishes were shaken gently to bring the tracheae into contact with the gas and the culture medium. All tracheae were initially kept for 3 days in the culture medium without the addition of retinoid. After this period, some tracheae were removed. […] The remaining tracheae were divided into groups, which were then treated with the following additives:
(a) The test substance dissolved in spectroscopically pure dimethylsulfoxide (the final concentration of dimethylsulfoxide in the culture medium was never greater than 0.1%).
(b) An equivalent amount of dimethylsulfoxide without a further additive.
The nutrient medium was changed three times per week. After culture for 10 days, the remaining tracheae were worked up by being fixed in 10% strength buffered formaldehyde solution and embedded in paraffin. […] Dose-effect curves of the novel compounds were recorded. Table 1 below gives the extrapolated molar doses which suppress keratinization in half the cultures (ED 50%).

[2] = tested on: utriculi in the Rhino mouse; assay: Reduction of the number of utriculi in the Rhino mouse model; format: in vivo, Rhino mice; conditions: for inhibition in vivo at 0.1 % / inhibition in vivo at 0.2 %: read-out: Decrease in % (number of utriculi / cysts)
[3] = tested on: comedos; assay: Comedolytic activity on tar-induced comedos of rabbit ears; format: in vivo, albino rabbits; conditions: Oryctolagus cuniculus, 336 h, topical, read-out: Comedolytic activity in % (decrease in number of comedos vs control ear)
Protocol: The development of comedos was induced by one topical application of 0.5 ml per day, onto both ears of albino rabbits, of 5% of tar in Polyan® (ester of lanolin alcohol and linolenic acid, produced by Amerchol Corp., U.S.A.), the application being carried out on 5 successive days per week over a period of two weeks. Thereafter, the test substances in ethanol/propylene glycol (70:30, v/v, 0.5 ml) were applied topically onto the inner skin area of one ear of each rabbit once per day on 5 successive days per week over a period of two weeks. The second ear of each animal served as an untreated control.
After further treatment for 72 hours with the test substance, the rabbits were sacrificed. A skin sample of about 6 cm^2 was taken from each auricle just outside the oratory passage, and this sample was divided into sections of about 1 cm^2. These pieces of skin were immersed for 2 minutes in warm water at 60° C. The epidermis was carefully peeled off using the flat end of a spatula and a small forceps, and was placed, dermal side up, on the slide. After drying in air overnight, the test strips were assessed under a stereomicroscope. […] The comedos were recognizable as discrete, cylindrical to round keratose particles which were of similar appearance and whose size and number were proportional to the activity of the test substance. The comedolytic effect was determined as the decrease in the number of comedos, in %, compared with the control ear (cf. Table 2).

[4] = tested on: white male New Zealand rabbits; conditions: rabbit, in vivo
Protocol: 5. The toleration of the test substances after topical administration was determined in experiments with 6 white male New Zealand rabbits in each case. In the case of each test animal, an area of about 6 cm^2 on the back was shaved. The test substances were dissolved in ethanol/propylene glycol (70:30, v/v), and 0.2 ml of this solution was applied with an automatic micropipette on 9 successive days by carefully rubbing the solution into a particular point twice daily at 6-hour intervals.
Before each application in the morning, all test areas were assessed subjectively in respect of erythemas and scaling, a numerical scale from 0 to 3 being employed (0=no reaction, 1=mild, 2=moderate and 3=severe). The average erythema formation and scaling gives the relative irritant level of the test substances in comparison with vitamin A acid.

[5] = tested on: leukemia cells of patients having promyelocytic leukemia; assay: Induction of cell differentiation in promyelocytic leukemia cells; format: cell-based, human (patients)
[6] = hamster tracheal culture, 10 days, serum-free, extrapolated from dose-effect curves, read-out: ED50 (molar dose which suppresses keratinization in half the cultures) (converted)
[7] = concentration 0.1%, Rhino mouse
[8] = concentration 0.2%, Rhino mouse
[9] = concentration 0.1%, rabbit ear, two weeks

IC50 [1, 6]: 1 pM
SMILES: C/C(=C\c1ccc(C(=O)Nc2nnn[nH]2)cc1)c1ccc2c(c1)C(C)(C)C(C)C2(C)C (centres unmarked) [Example 40, E-4-[2-methyl-2-(1,1,2,3,3,- pentamethylindan-6-yl)-vinyl]-N(tetrazol-5-yl)-benzamide]

SMILES: COC(=O)c1ccc(/C=C(\C)c2cc3c(cc2CC(C)C)C(C)(C)CCC3(C)C)cc1 [Example 20, methyl E4-[2-methyl-2-(1,4,4-tetramethyl-6-(2-methylpropyl)-1,2,3,4-tetrahydronaphth-7-yl)-vinyl]-benzoate]
inhibition in vivo at 0.1 % [2, 7]: 6%

SMILES: C/C(=C/c1ccc(C(=O)O)cc1)c1cc2c(cc1CC(C)C)C(C)(C)CCC2(C)C [Example 17, Z4-[2-methyl-2-(1,1,4,4-tetramethyl-6-(2-methylpropyl)-1,2,3,4-tetrahydronaphth-7-yl)-vinyl]-benzoic acid]
inhibition in vivo at 0.2 % [2, 8]: 62%
inhibition in vivo at 0.2 % ([3]; concentration 0.2%, rabbit ear, two weeks): 56%

SMILES: C/C(=C\c1ccc(C(=O)O)cc1)c1cc2c(cc1CCC(C)C)C(C)(C)CCC2(C)C [Example 23, E4-[2-methyl-2-(1,1,4,4-tetra-methyl-6-(3-methylbutyl)-1,2,3,4-tetrahydronaphth-7-yl)-vinyl]-benzoic acid]
inhibition in vivo at 0.2 % [2, 8]: 62%

SMILES: CCOC(=O)c1ccc(/C=C(\C)c2cc3c(cc2C(C)C)C(C)(C)CCC3(C)C)cc1 [Example 6, Ethyl E4-[2-methyl-2-(1,1,4,4-tetramethyl-6-isopropyl-1,2,3,4-tetrahydronaphth-7-yl)-vinyl]-benzoate]
inhibition in vivo at 0.1 % [2, 7]: 59%
inhibition in vivo at 0.1 % [3, 9]: 68%

SMILES: C/C(=C\c1ccc(C(=O)O)cc1)c1cc2c(cc1CCC(C)C)C(C)(C)C(C)C2(C)C (centres unmarked) [Example 25, E4-[2-methyl-2-(1,1,2,3,3-pentamethyl-5-(3-methylbutyl)-indan-6-yl)-vinyl]-benzoic acid]
inhibition in vivo at 0.2 % [2, 8]: 60%

IC50 [1, 6]: 1 pM
SMILES: C/C(=C\c1ccc(C(=O)Nc2ccc(O)cc2)cc1)c1ccc2c(c1)C(C)(C)C(C)C2(C)C (centres unmarked) [Example 32, E-4-[2-methyl-2-(1,1,2,3,3-pentamethylindan-6-yl)-vinyl]-benzoic acid 4-ydroxyanilide]

SMILES: C/C(=C/c1ccc(C(=O)O)cc1)c1cc2c(cc1C)C(C)(C)CCC2(C)C [Example 10, Z4-[2-methyl-2-(1,1,4,4,6-pentamethyl-1,2,3,4-tetrahydronaphth-7-yl)-vinyl]-benzoic acid]
inhibition in vivo at 0.1 % [2, 7]: 49%
inhibition in vivo at 0.1 % [3, 9]: 31%

IC50 [1, 6]: 10 pM
Erythema [4]: 3.0
Scaling [4]: 3.0
SMILES: C/C(=C\c1ccc(C(=O)O)cc1)c1cc2c(cc1C(C)C)C(C)(C)CCC2(C)C [Example 7, E4-[2-methyl-2-(1,1,4,4-tetramethyl-6-isopropyl-1,2,3,4-tetrahydronaphth-7-yl)-vinyl]benzoic acid]
inhibition in vivo at 0.1 % [2, 7]: 62%
inhibition in vivo at 0.1 % [3, 9]: 59%

SMILES: CCCCCCCCc1cc2c(cc1/C(C)=C/c1ccc(C(=O)O)cc1)C(C)(C)C(C)C2(C)C (centres unmarked) [Example 24, E4-[2-methyl-2-(1,1,2,3,3-pentamethyl-5-n-octyl-indan-6-yl)-vinyl]-benzoic acid]
Decrease in % (number of utriculi / cysts) [2, 8]: 42%

SMILES: CCCc1cc2c(cc1/C(C)=C/c1ccc(C(=O)O)cc1)C(C)(C)CCC2(C)C [Example 11, E4-[2-methyl-2-(1,1,4,4-tetramethyl-6-propyl-1,2,3,4-tetrahydronaphth-7-yl)-vinyl]-benzoic acid]
inhibition in vivo at 0.1 % [2, 7]: 59%
inhibition in vivo at 0.1 % [3, 9]: 40%

SMILES: CC1=C(/C=C/C(C)=C/C=C/C(C)=C/C(=O)O)C(C)(C)CCC1 [Vitamin A acid, reference compound]
IC50 ([1]; read-out: ED50 (molar dose which suppresses keratinization in half the cultures)): 10 pM
inhibition in vivo at 0.1 % ([2]; Mus musculus): 60%
Erythema [4]: 3.0
Scaling [4]: 3.0
inhibition in vivo at 0.1 % [3]: 67%

Erythema [4]: 1.4
Scaling [4]: 1.0
SMILES: C/C(=C\c1ccc(C(=O)O)cc1)c1cc2c(cc1CC(C)C)C(C)(C)CCC2(C)C [Example 8, E4-[2-methyl-2-(1,1,4,4-tetra-methyl-6-(2-methylpropyl)-1,2,3,4-tetrahydronaphth-7-yl)-vinyl]-benzoic acid]
inhibition in vivo at 0.1 % [2, 7]: 52%
inhibition in vivo at 0.1 % [3, 9]: 62%

IC50 [1, 6]: 10 pM
Erythema [4]: 2.8
Scaling [4]: 2.7
SMILES: C/C(=C\c1ccc(C(=O)O)cc1)c1cc2c(cc1C)C(C)(C)CCC2(C)C [Example 2, E-4-[2-methyl-2-(1,1,4,4,6-pentamethyl-1,2,3,4-tetrahydronaphth-7-yl)-vinyl]-benzoic acid]
inhibition in vivo at 0.1 % [2, 7]: 68%
induction of cell differentiation to give mature granulocytes [5]: induce cell differentiation to give mature granulocytes
inhibition in vivo at 0.1 % [3, 9]: 73%

SMILES: CCOC(=O)c1ccc(/C=C(\C)c2cc3c(cc2CC(C)C)C(C)(C)CCC3(C)C)cc1 [Example 19, ethyl E4-[2-methyl-2-(1,1,4,4-tetramethyl-6-(2-methylpropyl)-1,2,3,4-tetrahydronaphth-7-yl)-vinyl]-benzoate]
inhibition in vivo at 0.1 % [2, 7]: 12%

SMILES: CCCCCCCCc1cc2c(cc1/C(C)=C/c1ccc(C(=O)O)cc1)C(C)(C)CCC2(C)C [Example 15, E4-[2-methyl-2-(1,1,4,4-tetramethyl-6-n-octyl-1,2,3,4-tetrahydronaphth-7-yl)-vinyl]-benzoic acid]
inhibition in vivo at 0.1 % [2, 7]: 59%
inhibition in vivo at 0.1 % [3, 9]: 59%

SMILES: CCOC(=O)c1ccc(/C=C(\C)c2cc3c(cc2C)C(C)(C)CCC3(C)C)cc1 [Example 1, Ethyl E-4-[2-methyl-2-(1,1,4,4,6-pentamethyl-1,2,3,4-tetrahydronaphth-7-yl)-vinyl]-benzoate]
inhibition in vivo at 0.1 % [2, 7]: 65%
inhibition in vivo at 0.1 % [3, 9]: 75%

Erythema [4]: 2.0
Scaling [4]: 1.7
SMILES: CCc1cc2c(cc1/C(C)=C/c1ccc(C(=O)O)cc1)C(C)(C)CCC2(C)C [Example 5, E4-[2-methyl-2-(1,1,4,4-tetramethyl-6-ethyl-1,2,3,4-tetrahydronaphth-7-yl)-vinyl]-benzoic acid]
inhibition in vivo at 0.1 % [2, 7]: 69%
inhibition in vivo at 0.1 % [3, 9]: 54%

IC50 [1, 6]: 3 pM
SMILES: C/C(=C\c1ccc(C(=O)Nc2ccc(O)cc2)cc1)c1ccc2c(c1)C(C)(C)CCC2(C)C [Example 31, E-4-[2-methyl-2-(1,1,4,4-tetramethyl-1,2,3,4-tetrahydronaphth-7-yl)-vinyl]-benzoic acid 4-hydroxyanilide]

SMILES: CCCCc1cc2c(cc1/C(C)=C/c1ccc(C(=O)O)cc1)C(C)(C)CCC2(C)C [Example 14, E4-[2-methyl-2-(1,1,4,4-tetramethyl-6-n-butyl-1,2,3,4-tetrahydronaphth-7-yl)-vinyl]-benzoic acid]
inhibition in vivo at 0.1 % [2, 7]: 64%
inhibition in vivo at 0.1 % [3, 9]: 79%

SMILES: C/C(=C\c1ccc(C(=O)O)cc1)c1cc2c(cc1CC(C)C)C(C)(C)C(C)C2(C)C (centres unmarked) [Example 18, E4-[2-methyl-2-(1,1,2,3,3-pentamethyl-5-(2-methylpropyl)-indan-6-yl)-vinyl]-benzoic acid]
inhibition in vivo at 0.2 % [2, 8]: 42%
